Data published in patent publication US10308634B2, “Substituted indazoles, methods for the production thereof, pharmaceutical preparations that contain said new substituted indazoles, and use of said new substituted indazoles to produce drugs” (BAYER PHARMA AKTIENGESELLSCHAFT, priority 2014, dated 2019).
Where two headings read alike, the source gives them in different places.

How the values were obtained:
human IRAK4 = human IRAK4 (Homo sapiens (Human), UniProt Q9NWZ3); assay: IRAK4 kinase assay (IRAK4 TR-FRET assay); type: biochemical
Experimental: The IRAK4-inhibitory activity of the inventive substances was measured in the IRAK4 TR-FRET assay (TR-FRET=Time Resolved Fluorescence Resonance Energy Transfer) described hereinafter.
Recombinant fusion protein from N-terminal GST (glutathione S-transferase) and human IRAK4, expressed in baculovirus-infected insect cells (Hi5, BTI-TN-5B1-4, cell line purchased from Invitrogen, catalogue No. B855-02) and purified via affinity chromatography, was used as enzyme. The substrate used for the kinase reaction was the biotinylated peptide biotin-Ahx-[…] (C-terminus in amide form) which can be purchased, for example, from Biosyntan GmbH (Berlin-Buch).
50 nl of the respective solution were pipetted into a black low-volume 384-well microtitre plate (Greiner Bio-One, Frickenhausen, Germany), 2 μl of a solution of IRAK4 in assay buffer [50 mM HEPES pH 7.5, 5 mM MgCl2, 1.0 mM dithiothreitol, 30 μM activated sodium orthovanadate, 0.1% (w/v) of bovine gamma-globulin (BGG) 0.04% (v/v) nonidet-P40 (Sigma)] were added and the mixture was incubated for 15 min to allow prebinding of the substances to the enzyme prior to the kinase reaction. […] The concentration of the IRAK4 was adjusted to the respective activity of the enzyme and set such that the assay was carried out in the linear range. Typical concentrations were in the order of about 0.2 nM.
The resulting mixture was incubated at 22° C. for 1 h to allow formation of a complex of the biotinylated phosphorylated substrate and the detection reagents. The amount of the phosphorylated substrate was then evaluated by measuring the resonance energy transfer from europium chelate-labelled anti-mouse-IgG antibody to streptavidin-XL665. […] The IC50 values were calculated by a 4-parameter fit.

THP-1 cells = assay: TNF-α secretion in THP-1 cells (LPS-triggered, HTRF); type: cell-based; conditions: Homo sapiens, read-out: IC50 with respect to the secretion of TNF-α in THP-1 cells
Experimental: This test is suited to test substances for their ability to inhibit secretion of TNF-α (tumour necrosis factor alpha) in THP-1 cells (human monocytic acute leukaemia cell line). TNF-α is a cytokine involved in inflammatory processes. In this test, TNF-α secretion is triggered by incubation with bacterial lipopolysaccharide (LPS).
The cells were incubated at room temperature for 15 min. 2-2.5 μl of 0.1 μg/ml LPS (Sigma, Escherichia coli 055:B5, Cat. No. L5418) dissolved in cell culture medium (final concentration 0.05 μg/ml) were then dispensed into each well. As neutral control, cells were treated with 0.05 μg/ml LPS and 1% DMSO and, as inhibitor control, with 1% DMSO only.
The amount of TNF-α was determined using the TNF-alpha HTRF Detection Kit (Cisbio, Cat. No. 62TNFPEB/C). To this end, 2 μl of the detection solution in each case, consisting of anti-TNF-α-XL665 conjugate and anti-TNF-α-cryptate conjugate dissolved in the reconstitution buffer in accordance with the manufacturer's instructions, were added for the HTRF (Homogeneous Time-Resolved Fluorescence) test. After the addition, the mixture was incubated either at room temperature for 3 h or at 4° C. overnight.
The activity of the substances is expressed as the ratio between neutral and inhibitor control in percent. The IC50 values were calculated using a 4-parameter fit.

[1] = TR-FRET, 1 mM ATP, read-out: IC50 in the IRAK4 kinase assay

Chain of human IRAK4 (Q9NWZ3 whole entry): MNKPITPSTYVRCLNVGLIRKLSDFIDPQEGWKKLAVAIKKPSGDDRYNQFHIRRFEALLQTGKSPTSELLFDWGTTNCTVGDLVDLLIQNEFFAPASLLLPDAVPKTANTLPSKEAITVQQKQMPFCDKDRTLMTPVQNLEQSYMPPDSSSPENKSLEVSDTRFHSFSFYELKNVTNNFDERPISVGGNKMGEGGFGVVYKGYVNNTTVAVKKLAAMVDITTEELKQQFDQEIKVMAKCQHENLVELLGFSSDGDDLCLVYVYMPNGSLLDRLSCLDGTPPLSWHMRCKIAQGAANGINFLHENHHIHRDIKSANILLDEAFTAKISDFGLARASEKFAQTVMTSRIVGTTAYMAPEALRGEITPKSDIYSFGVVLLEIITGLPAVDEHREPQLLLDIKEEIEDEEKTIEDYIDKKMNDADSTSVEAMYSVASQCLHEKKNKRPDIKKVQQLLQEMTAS

| SMILES | IC50 (human IRAK4; [1]) [nM] | IC50 (THP-1 cells; THP-1, 0.05 μg/ml LPS, 17 h) [nM] | IC50 (THP-1 cells; THP-1, 17 h) [nM] | IC50 (human IRAK4) [nM] |
| --- | --- | --- | --- | --- |
| CC(C)(O)c1cc2nn(CCC3(O)CC3)cc2cc1NC(=O)c1cccc(C(F)(F)F)n1 [Example 22, N-{2-[2-(1-Hydroxycyclopropyl)ethyl]-6-(2-hydroxypropan-2-yl)-2H-indazol-5-yl}-6-(trifluoromethyl)pyridine-2-carboxamide] | 3.7 | – | – | – |
| CC(C)(O)c1cc2nn(CCCO)cc2cc1NC(=O)c1cccc(C(F)F)n1 [Example 15, 6-(Difluoromethyl)-N-[6-(2-hydroxypropan-2-yl)-2-(3-hydroxypropyl)-2H-indazol-5-yl]pyridine-2-carboxamide] | 12.3 | 200 | – | – |
| CC(C)(O)c1cc2nn(CCCC(F)(F)F)cc2cc1NC(=O)c1cccc(C(F)(F)F)n1 [Example 16, N-[6-(2-Hydroxypropan-2-yl)-2-(4,4,4-trifluorobutyl)-2H-indazol-5-yl]-6-(trifluoromethyl)pyridine-2-carboxamide] | 21.5 | 200 | – | – |
| COCCn1cc2cc(NC(=O)c3cccc(C(F)(F)F)n3)c(CO)cc2n1 [Example 2, N-[6-(Hydroxymethyl)-2-(2-methoxyethyl)-2H-indazol-5-yl]-6-(trifluoromethyl)pyridine-2-carboxamide] | – | 15100 | – | – |
| Cc1cccc(C(=O)Nc2cc3cn(CCC(C)(C)O)nc3cc2C(C)(C)O)n1 [Example 20, N-[2-(3-Hydroxy-3-methylbutyl)-6-(2-hydroxypropan-2-yl)-2H-indazol-5-yl]-6-methylpyridine-2-carboxamide] | 13.3 | 200 | – | – |
| CC(C)(O)CCn1cc2cc(NC(=O)c3cccc(C(F)F)n3)c(C(C)(C)O)cc2n1 [Example 13, 6-(Difluoromethyl)-N-[2-(3-hydroxy-3-methylbutyl)-6-(2-hydroxypropan-2-yl)-2H-indazol-5-yl]pyridine-2-carboxamide] | 1.3 | – | 100 | – |
| CC(C)(O)c1cc2nn(CCCO)cc2cc1NC(=O)c1cccc(C(F)(F)F)n1 [Example 6, N-[6-(2-Hydroxypropan-2-yl)-2-(3-hydroxypropyl)-2H-indazol-5-yl]-6-(trifluoromethyl)pyridine-2-carboxamide] | 35.7 | 900 | – | – |
| O=C(Nc1cc2cn(CCO)nc2cc1CO)c1cccc(C(F)(F)F)n1 [Example 7, N-[2-(2-Hydroxyethyl)-6-(hydroxymethyl)-2H-indazol-5-yl]-6-(trifluoromethyl)pyridine-2-carboxamide] | 867 | 16400 | – | – |
| Cc1nc(C(=O)Nc2cc3cn(CCC(C)(C)O)nc3cc2C(C)(C)O)ccc1F [Example 19, 5-Fluoro-N-[2-(3-hydroxy-3-methylbutyl)-6-(2-hydroxypropan-2-yl)-2H-indazol-5-yl]-6-methylpyridine-2-carboxamide] | 8.9 | – | 100 | – |
| CC(C)(O)c1cc2nn(CCS(C)(=O)=O)cc2cc1NC(=O)c1cccc(C(F)F)n1 [Example 14, 6-(Difluoromethyl)-N-{6-(2-hydroxypropan-2-yl)-2-[2-(methylsulphonyl)ethyl]-2H-indazol-5-yl}pyridine-2-carboxamide] | 10.8 | 200 | – | – |
| CC(C)(O)c1cc2nn(CCCOC(F)(F)F)cc2cc1NC(=O)c1cccc(C(F)(F)F)n1 [Example 17, N-{6-(2-Hydroxypropan-2-yl)-2-[3-(trifluoromethoxy)propyl]-2H-indazol-5-yl}-6-(trifluoromethyl)pyridine-2-carboxamide] | 36 | 500 | – | – |
| CC(C)(O)c1cc2nn(CCO)cc2cc1NC(=O)c1cccc(C(F)(F)F)n1 [Example 5, N-[2-(2-Hydroxyethyl)-6-(2-hydroxypropan-2-yl)-2H-indazol-5-yl]-6-(trifluoromethyl)pyridine-2-carboxamide] | 264 | 5400 | – | – |
| CC(C)(O)c1cc2nn(CCCOCC(F)(F)F)cc2cc1NC(=O)c1cccc(C(F)(F)F)n1 [Example 18, N-{6-(2-Hydroxypropan-2-yl)-2-[3-(2,2,2-trifluoroethoxy)propyl]-2H-indazol-5-yl}-6-(trifluoromethyl)pyridine-2-carboxamide] | 47.5 | 300 | – | – |
| O=C(Nc1cc2cn(CC3COC3)nc2cc1CO)c1cccc(C(F)(F)F)n1 [Example 9, N-[6-(Hydroxymethyl)-2-(oxetan-3-ylmethyl)-2H-indazol-5-yl]-6-(trifluoromethyl)pyridine-2-carboxamide] | 104 | 6500 | – | – |
| CC(C)(O)c1cccc(C(=O)Nc2cc3cn(CCCC(F)(F)F)nc3cc2C(C)(C)O)n1 [Example 21, 6-(2-Hydroxypropan-2-yl)-N-[6-(2-hydroxypropan-2-yl)-2-(4,4,4-trifluorobutyl)-2H-indazol-5-yl]pyridine-2-carboxamide] | 117 | 1800 | – | – |
| COCCCn1cc2cc(NC(=O)c3cccc(C(F)(F)F)n3)c(C(=O)OC)cc2n1 [Intermediate 4-3, Methyl 2-(3-methoxypropyl)-5-({[6-(trifluoromethyl)pyridin-2-yl]carbonyl}amino)-2H-indazole-6-carboxylate] | – | – | – | 13 |
| COCCn1cc2cc(NC(=O)c3cccc(C(F)(F)F)n3)c(C(=O)OC)cc2n1 [Intermediate 4-2, Methyl 2-(2-methoxyethyl)-5-({[6-(trifluoromethyl)pyridin-2-yl]carbonyl}amino)-2H-indazole-6-carboxylate] | – | – | – | 21.7 |
| COCCn1cc2cc(NC(=O)c3cccc(C(F)(F)F)n3)c(C(C)(C)O)cc2n1 [Example 1, N-[6-(2-Hydroxypropan-2-yl)-2-(2-methoxyethyl)-2H-indazol-5-yl]-6-(trifluoromethyl)pyridine-2-carboxamide] | 30.6 | 1000 | – | – |
| COCCCn1cc2cc(NC(=O)c3cccc(C(F)(F)F)n3)c(CO)cc2n1 [Example 4, N-[6-(Hydroxymethyl)-2-(3-methoxypropyl)-2H-indazol-5-yl]-6-(trifluoromethyl)pyridine-2-carboxamide] | 52.7 | 5600 | – | – |
| CC(C)(O)c1cc2nn(CCCS(C)(=O)=O)cc2cc1NC(=O)c1cccc(C(F)(F)F)n1 [Example 10, N-{6-(2-Hydroxypropan-2-yl)-2-[3-(methylsulphonyl)propyl]-2H-indazol-5-yl}-6-(trifluoromethyl)pyridine-2-carboxamide] | 18.5 | 1000 | – | – |
| CC(C)(O)c1cc2nn(CC3COC3)cc2cc1NC(=O)c1cccc(C(F)(F)F)n1 [Example 8, N-[6-(2-Hydroxypropan-2-yl)-2-(oxetan-3-ylmethyl)-2H-indazol-5-yl]-6-(trifluoromethyl)pyridine-2-carboxamide] | 15 | 1000 | – | – |
| COC(=O)c1cc2nn(CCC(C)(C)O)cc2cc1NC(=O)c1cccc(C(F)(F)F)n1 [Intermediate 4-4, Methyl 2-(3-hydroxy-3-methylbutyl)-5-({[6-(trifluoromethyl)pyridin-2-yl]carbonyl}amino)-2H-indazole-6-carboxylate] | – | – | – | 6.2 |
